The source of these data is patent US10052320B2, “Substituted quinoxalines as FGFR kinase inhibitors” (ASTEX THERAPEUTICS LIMITED, priority 2011, dated 2018).

The target in one test is FGFR1 (h) (Homo sapiens, UniProt P11362). Briefly: FGFR1 (enzymatic assay), TR-FRET. The following applies: read-out: FGFR 1 pIC50 (converted). It counts as biochemical. The procedure:
In a final reaction volume of 30 μL, FGFR1 (h) (25 ng/ml) was incubated with 50 mM HEPES pH 7.5, 6 mM MnCl2, 1 mM DTT, 0.1 mM Na3VO4, 0.01% Triton-X-100, 500 nM Btn-Flt3 and 5 μM ATP in the presence of compound (1% DMSO final). […] Time-Resolved Fluorescence Resonance Energy Transfer (TR-FRET) signal (ex340 nm. Em 620 nm, em 655 nm) was measured afterwards and results are expressed in RFU (Relative Fluorescence Units).
On the technique in general: In TR-FRET formats the signal depends on donor and acceptor labels being close together.

A further test deals with FGFR4 (h) (Homo sapiens, UniProt P22455). Briefly: FGFR4 (enzymatic assay), TR-FRET. The note with it: read-out: FGFR 4 pIC50 (converted). It is filed as biochemical. The procedure: In a final reaction volume of 30 μL, FGFR4 (h) (60 ng/ml) was incubated with 50 mM HEPES pH 7.5, 6 mM MnCl2, 1 mM DTT, 0.1 mM Na3VO4, 0.01% Triton-X-100, 500 nM Btn-Flt3 and 5 μM ATP in the presence of compound (1% DMSO final). […] Time-Resolved Fluorescence Resonance Energy Transfer (TR-FRET) signal (ex340 nm. Em 620 nm, em 655 nm) was measured afterwards and results are expressed in RFU (Relative Fluorescence Units).

Test [1] has as its target Ba/F3-FGFR1-transfected cells (Homo sapiens, UniProt P11362). The experiment in a line: Ba/F3-FGFR1 (minus IL3) cellular proliferation assay, Alamar Blue. It is filed as cell-based. The note with it: minus IL3, 384 well. The procedure:
Ba/F3-FGFR1 (Minus IL3 or Plus IL3) (Cellular Proliferation Assay)
(§1) Cells were put in an incubator at 37° C. and 5% CO2. After 24 hours, 10 μl of Alamar Blue solution (0.5 mM K3Fe(CN)6, 0.5 mM KaFe(CN)6, 0.15 mM Resazurin and 100 mM Phosphate Buffer) was added to the wells, incubated for 4 hours at 37° C. and 5% CO2 before RFU's (Relative Fluorescence Units) (ex. 540 nm., em. 590 nm.) were measured in a flurorescence plate reader. […]
(§2) In a 96 well plate, 180 μl cell culture medium (phenol red free RPMI-1640, 10% FBS, 2 mM L-Glutamine and 50 μg/ml Gentamycin) containing 10000 cells per well of Ba/F3-FGFR1-transfected cells were pipette and 20 μl of compound dilution in DMSO was added. Cells were put in an incubator at 37° C. and 5% CO2. After 24 hours, 40 μl of Alamar Blue solution (0.5 mM K3Fe(CN)6, 0.5 mM KaFe(CN)6, 0.15 mM Resazurin and 100 mM Phosphate Buffer) was added to the wells, incubated for 4 hours at 37° C. and 5% CO2 before RFU's (Relative Fluorescence Units) (ex. 540 nm., em. 590 nm.) were measured in a flurorescence plate reader.
A general note: Alamar Blue is a resazurin reagent that responds to reducing activity.

In test [2] the target is T1, Ba/F3-Flt3-transfected cells (Homo sapiens, UniProt P36888, cells depend on it, form not given).
T1 sequence (P36888 1-993): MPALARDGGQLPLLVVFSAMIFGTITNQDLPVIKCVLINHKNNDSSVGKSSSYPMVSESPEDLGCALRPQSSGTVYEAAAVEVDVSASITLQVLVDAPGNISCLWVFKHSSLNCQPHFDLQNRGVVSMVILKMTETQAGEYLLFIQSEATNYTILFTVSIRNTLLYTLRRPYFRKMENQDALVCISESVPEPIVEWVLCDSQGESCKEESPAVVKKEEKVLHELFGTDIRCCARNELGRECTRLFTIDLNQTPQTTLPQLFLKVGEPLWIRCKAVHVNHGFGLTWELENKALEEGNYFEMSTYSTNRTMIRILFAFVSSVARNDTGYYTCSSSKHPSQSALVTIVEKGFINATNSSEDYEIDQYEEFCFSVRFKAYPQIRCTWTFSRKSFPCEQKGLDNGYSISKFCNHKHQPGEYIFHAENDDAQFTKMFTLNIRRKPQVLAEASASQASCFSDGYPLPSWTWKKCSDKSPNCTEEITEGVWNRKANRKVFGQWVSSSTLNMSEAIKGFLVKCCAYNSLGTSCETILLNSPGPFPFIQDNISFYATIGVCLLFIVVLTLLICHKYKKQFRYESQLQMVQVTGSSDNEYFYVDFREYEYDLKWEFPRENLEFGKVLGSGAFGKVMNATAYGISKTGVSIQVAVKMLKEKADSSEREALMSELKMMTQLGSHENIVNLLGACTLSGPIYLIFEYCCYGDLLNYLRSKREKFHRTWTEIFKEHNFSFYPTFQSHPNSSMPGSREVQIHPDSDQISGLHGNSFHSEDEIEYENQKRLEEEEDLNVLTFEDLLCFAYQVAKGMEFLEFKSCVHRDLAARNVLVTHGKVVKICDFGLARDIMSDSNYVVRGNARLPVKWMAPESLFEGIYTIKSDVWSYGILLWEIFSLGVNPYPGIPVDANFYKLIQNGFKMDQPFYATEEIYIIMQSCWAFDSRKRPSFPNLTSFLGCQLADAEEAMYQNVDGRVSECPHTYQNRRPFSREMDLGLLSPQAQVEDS
The experiment in a line: Ba/F3-Flt3 (minus IL3) cellular proliferation assay, Alamar Blue. The note with it: minus IL3. It counts as cell-based. The procedure:
Ba/F3-Flt3 (Minus IL3 or Plus IL3) (Cellular Proliferation Assay)
as §1
as §2, with “Ba/F3-Flt3-transfected” for “Ba/F3-FGFR1-transfected”

SMILES strings stand for the structures. Where only a bound is given, the exact number is not on record here.

Chain of FGFR1 (h) (P11362 22-822): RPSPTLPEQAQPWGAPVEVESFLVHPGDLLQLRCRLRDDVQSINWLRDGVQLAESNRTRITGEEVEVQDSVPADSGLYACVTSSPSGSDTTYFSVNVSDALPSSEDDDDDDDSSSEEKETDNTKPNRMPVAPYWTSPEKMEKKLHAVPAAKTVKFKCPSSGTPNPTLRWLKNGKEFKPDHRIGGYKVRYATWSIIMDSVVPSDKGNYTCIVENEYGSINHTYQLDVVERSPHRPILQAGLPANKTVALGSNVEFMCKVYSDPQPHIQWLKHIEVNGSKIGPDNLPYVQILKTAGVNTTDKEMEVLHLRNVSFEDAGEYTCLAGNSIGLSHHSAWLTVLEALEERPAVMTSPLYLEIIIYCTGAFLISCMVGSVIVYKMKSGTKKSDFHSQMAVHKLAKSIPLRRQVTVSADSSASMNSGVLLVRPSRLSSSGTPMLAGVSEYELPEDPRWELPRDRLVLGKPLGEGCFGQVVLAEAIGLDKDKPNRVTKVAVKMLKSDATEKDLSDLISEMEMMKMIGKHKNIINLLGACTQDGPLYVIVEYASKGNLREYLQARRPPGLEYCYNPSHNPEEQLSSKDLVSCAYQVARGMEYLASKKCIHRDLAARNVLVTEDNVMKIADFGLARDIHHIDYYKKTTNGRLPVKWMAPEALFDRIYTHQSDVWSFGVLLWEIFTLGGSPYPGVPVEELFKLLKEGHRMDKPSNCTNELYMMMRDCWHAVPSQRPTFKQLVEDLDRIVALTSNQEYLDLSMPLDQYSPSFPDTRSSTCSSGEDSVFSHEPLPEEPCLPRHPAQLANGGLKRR
Chain of Ba/F3-FGFR1-transfected cells (P11362 whole entry, change not shown): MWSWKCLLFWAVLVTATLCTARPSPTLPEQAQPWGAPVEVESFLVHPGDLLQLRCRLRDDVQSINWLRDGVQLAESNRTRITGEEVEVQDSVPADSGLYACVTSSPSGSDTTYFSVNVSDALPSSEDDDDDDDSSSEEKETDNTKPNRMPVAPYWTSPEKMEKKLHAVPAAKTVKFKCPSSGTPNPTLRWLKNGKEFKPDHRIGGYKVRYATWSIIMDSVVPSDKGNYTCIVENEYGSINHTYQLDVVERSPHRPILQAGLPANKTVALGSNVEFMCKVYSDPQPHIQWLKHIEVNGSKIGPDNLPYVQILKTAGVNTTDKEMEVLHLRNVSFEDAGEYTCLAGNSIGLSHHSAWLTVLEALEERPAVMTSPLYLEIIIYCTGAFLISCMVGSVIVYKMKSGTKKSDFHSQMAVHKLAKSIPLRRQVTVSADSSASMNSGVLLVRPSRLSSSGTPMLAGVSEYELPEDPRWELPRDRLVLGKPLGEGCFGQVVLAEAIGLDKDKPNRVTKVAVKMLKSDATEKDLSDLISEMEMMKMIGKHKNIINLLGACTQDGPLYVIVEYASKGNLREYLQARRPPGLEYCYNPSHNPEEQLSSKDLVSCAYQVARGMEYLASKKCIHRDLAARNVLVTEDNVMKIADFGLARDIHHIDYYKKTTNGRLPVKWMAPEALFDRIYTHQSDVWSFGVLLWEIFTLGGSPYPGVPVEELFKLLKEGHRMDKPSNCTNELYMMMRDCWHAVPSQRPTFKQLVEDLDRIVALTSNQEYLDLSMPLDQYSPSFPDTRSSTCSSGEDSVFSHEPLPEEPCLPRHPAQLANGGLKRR
Chain of FGFR4 (h) (P22455 22-802): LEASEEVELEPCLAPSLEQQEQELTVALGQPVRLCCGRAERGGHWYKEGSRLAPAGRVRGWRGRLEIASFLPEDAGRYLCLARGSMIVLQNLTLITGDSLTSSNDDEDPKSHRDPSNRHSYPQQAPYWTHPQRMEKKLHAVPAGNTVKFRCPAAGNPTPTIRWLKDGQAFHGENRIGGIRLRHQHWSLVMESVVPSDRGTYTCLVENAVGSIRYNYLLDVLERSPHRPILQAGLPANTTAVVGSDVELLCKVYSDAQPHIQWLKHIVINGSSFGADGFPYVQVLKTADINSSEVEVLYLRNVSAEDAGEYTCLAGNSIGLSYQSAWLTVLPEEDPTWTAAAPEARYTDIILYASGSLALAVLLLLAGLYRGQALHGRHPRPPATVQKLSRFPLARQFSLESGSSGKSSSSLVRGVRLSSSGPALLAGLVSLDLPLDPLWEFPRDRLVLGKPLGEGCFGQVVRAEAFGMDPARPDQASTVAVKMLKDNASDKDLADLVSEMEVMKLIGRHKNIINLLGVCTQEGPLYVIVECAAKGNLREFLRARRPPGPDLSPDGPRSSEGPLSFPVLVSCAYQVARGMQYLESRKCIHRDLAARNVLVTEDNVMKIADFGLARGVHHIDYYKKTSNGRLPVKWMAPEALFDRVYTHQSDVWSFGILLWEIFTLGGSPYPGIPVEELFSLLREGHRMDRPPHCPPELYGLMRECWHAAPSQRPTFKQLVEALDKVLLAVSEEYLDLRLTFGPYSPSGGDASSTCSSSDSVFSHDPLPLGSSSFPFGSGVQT

With `COC(=O)C1CCCN1c1cnc2ccc(N(CCO)c3cc(OC)cc(OC)c3)cc2n1` (stereo not shown) [Compound 172], the figures for the IC50 on FGFR1 (h) and on FGFR4 (h) were 107 nM and 417 nM, respectively. In addition, in test [1], the “BAF3-FGFR 1 (MIN IL3) 384 well pIC50” value was found to be 6.6. Also, the “BAF3-FLT3 (MIN IL3) 384 well pIC50” value in test [2] is listed as 5.19.
Turning to `COc1cc(OC)cc(N(CCNC(C)C)c2ccc3ncc(C(=O)NCCN4CCOCC4)nc3c2)c1` [Compound 160], the values for the IC50 at FGFR1 (h) and on FGFR4 (h) were 42.7 nM and 309 nM, respectively. Further, in test [1], the “BAF3-FGFR 1 (MIN IL3) 384 well pIC50” value is reported as 5.86. Also, the “BAF3-FLT3 (MIN IL3) 384 well pIC50” value in test [2] is recorded as below 5.
Turning to `COc1cc(OC)cc(N(CC2CC2)c2ccc3ncc(N4CCN(CCO)CC4)nc3c2)c1` [Compound 49], the IC50 on FGFR1 (h) is 316 nM. Also, the IC50 at FGFR4 (h) is 1580 nM. Moreover, the “BAF3-FGFR 1 (MIN IL3) 384 well pIC50” value in test [1] is recorded as below 5. In test [2], the “BAF3-FLT3 (MIN IL3) 96 well pIC50” value was determined as 5.2 and the “BAF3-FLT3 (MIN IL3) 384 well pIC50” value is below 5.
`COc1cc(OC)cc(N(CCO)c2ccc3ncc(-c4ccnc(C(=O)NCCCCCN)c4)nc3c2)c1` [Compound 138]: the IC50 at FGFR1 (h) is 22.9 nM; on FGFR4 (h) it was 178 nM. Also, in test [1], the “BAF3-FGFR 1 (MIN IL3) 384 well pIC50” value is recorded as below 5. Also, the “BAF3-FLT3 (MIN IL3) 384 well pIC50” value in test [2] was below 5.
As to `COc1cc(OC)cc(N(CCO)c2ccc3ncc(-c4ccnc(C(=O)NCCCCCO)c4)nc3c2)c1` [Compound 139], the IC50 on FGFR1 (h) is 31.6 nM; at FGFR4 (h), 97.7 nM. The “BAF3-FGFR 1 (MIN IL3) 384 well pIC50” value in test [1] was determined as 5.35. Further, the “BAF3-FLT3 (MIN IL3) 384 well pIC50” value in test [2] was below 5.
The matching figures for `COc1cc(OC)cc(N(CCCNC(C)C)c2ccc3ncc(-c4ccnc(N)c4)nc3c2)c1` [Compound 143]: 1.05 nM, 9.55 nM, 6.56 and around 5.25.
The matching figures for `COc1cc(OC)cc(N(CCNC(C)C)c2ccc3ncc(-n4cnc(CO)c4)nc3c2)c1` [Compound 77]: 2.24 nM, 52.5 nM, 7.12 and below 5.
The like results for `COCC(CN(c1cc(OC)cc(OC)c1)c1ccc2ncc(-c3cccnc3)nc2c1)OC(C)=O` (single isomer, unassigned) [Compound 76] were, in that order, 11.7 nM, 107 nM, 6.3 and below 5.
As to `COc1cc(OC)cc(N(CCNC(C)C)c2ccc3ncc(-c4ccnc(C(=O)NCCCN)c4)nc3c2)c1` [Compound 146], the IC50 at FGFR1 (h) was 2 nM; at FGFR4 (h), 49 nM. Also, the “BAF3-FGFR 1 (MIN IL3) 384 well pIC50” value in test [1] was found to be 6.46. The “BAF3-FLT3 (MIN IL3) 384 well pIC50” value in test [2] is listed as below 5.
For the compound `COc1cc(OC)cc(N(CCNC(C)C)c2ccc3ncc(NCC4CCNCC4)nc3c2)c1` [Compound 161], the values for the IC50 at FGFR1 (h) and at FGFR4 (h) were 5.89 nM and 331 nM, respectively. Moreover, the “BAF3-FGFR 1 (MIN IL3) 384 well pIC50” value in test [1] worked out at 5.42. In addition, the “BAF3-FLT3 (MIN IL3) 384 well pIC50” value in test [2] is on record as below 5.
The like results for `COc1cc(OC)cc(N(CCCNCC(F)(F)F)c2ccc3ncc(C(=O)NCCN4CCOCC4)nc3c2)c1` [Compound 158] were, in that order, 398 nM, above 1000 nM, below 5 and below 5.
The like results for `COc1cc(OC)cc(N(CCNC(C)C)c2ccc3ncc(-c4ccc(N5CCN(C)CC5)nc4)nc3c2)c1` [Compound 170] were, in that order, 0.813 nM, 28.8 nM, 6.04 and 5.47.
For the compound `COc1cc(OC)cc(N(CCCO)c2ccc3ncc(-c4ccnc(C(=O)NCCOCCO)c4)nc3c2)c1` [Compound 186], the IC50 at FGFR1 (h) was 44.7 nM; at FGFR4 (h), 126 nM. In addition, in test [1], the “BAF3-FGFR 1 (MIN IL3) 384 well pIC50” value was 5.98. In test [2], the “BAF3-FLT3 (MIN IL3) 384 well pIC50” value is below 5.
The matching figures for `COc1cc(OC)cc(N(CCNC(C)C)c2ccc3ncc(C(=O)N4CCOCC4)nc3c2)c1` [Compound 181]: 295 nM, above 1000 nM, 5.44 and below 5.
Consider `COc1cc(OC)cc(N(CCCNCCCO)c2ccc3ncc(-c4ccnc(C(=O)NCCCCN)c4)nc3c2)c1` [Compound 132], for which the figures for the IC50 at FGFR1 (h) and at FGFR4 (h) were 4.37 nM and 117 nM, respectively. Besides, the “BAF3-FGFR 1 (MIN IL3) 384 well pIC50” value in test [1] came out at 5.8. In addition, in test [2], the “BAF3-FLT3 (MIN IL3) 384 well pIC50” value stood at 5.31.
The matching figures for `COc1cc(OC)cc(N(CCNC(C)C)c2ccc3ncc(C(=O)NCCCN4CCN(C)CC4)nc3c2)c1` [Compound 159]: 31.6 nM, 490 nM, 5.74 and below 5.
As for `COc1cc(OC)cc(N(CCNC(C)C)c2ccc3ncc(-c4ccn[nH]4)nc3c2)c1` [Compound 189], the IC50 on FGFR1 (h) was 2.82 nM; at FGFR4 (h), 7.24 nM. Besides, in test [1], the “BAF3-FGFR 1 (MIN IL3) 384 well pIC50” value amounted to 7.29.
For the compound `COc1cc(OC)cc(N(CCCNCC(F)(F)F)c2ccc3ncc(-c4ccn(C)c4)nc3c2)c1` [Compound 5], the IC50 at FGFR1 (h) was 6.92 nM. In addition, the “BAF3-FGFR 1 (MIN IL3) 384 well pIC50” value in test [1] was determined as 5.99. In addition, in test [2], the “BAF3-FLT3 (MIN IL3) 384 well pIC50” value is given as below 5.
As to `COc1cc(OC)cc(N(CCNC(C)C)c2ccc3ncc(C(=O)N4CCN(C)CC4)nc3c2)c1` [Compound 179], the figures for the IC50 on FGFR1 (h) and at FGFR4 (h) were 204 nM and above 1000 nM, respectively. For the same compound, the “BAF3-FGFR 1 (MIN IL3) 384 well pIC50” value in test [1] was determined as 5.62. In addition, in test [2], the “BAF3-FLT3 (MIN IL3) 384 well pIC50” value is listed as below 5.
The matching figures for `COc1cc(OC)cc(N(CCNC(C)C)c2ccc3ncc(C(=O)N4CCCCC4)nc3c2)c1` [Compound 180]: 229 nM, 977 nM, 5.51 and below 5.
